Measured values from patent publication US20260374766A1, “METHODS FOR TREATING CANCER” (Antares Therapeutics, Inc., priority 2022, published 2026).

Key:
H1299 p53 R273H = assay: Cell Proliferation Assay (CellTiter-Glo, CTG), H1299 p53 R273H (NClH1299-inducible p53 R273H); type: cell-based; settings: Homo sapiens, NCI-H1299, 120 h, CellTiter-Glo, H1299 p53 R273H, 5 days
How it was run: (§1)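 Tet-One inducible p53 Y220C or R273H constructs were stably introduced into NCI-H1299 by lentiviral transduction; NUGC3 was used as is. Cells (250-500 per well) were exposed to compound for 5 days, then CellTiter-Glo was added for 10 min at room temperature and IC50 was calculated from luminescence.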

NUGC3 p53 Y220C = assay: Cell Proliferation Assay (CellTiter-Glo, CTG), NUGC3 p53 Y220C; type: cell-based; settings: Homo sapiens, NUGC-3, 120 h, CellTiter-Glo, NUGC3 p53 Y220C, 5 days
How it was run: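 NClH1299 lines stably transduced with Tet-inducible p53 Y220C or R273H, plus NUGC3, were treated with compound for 5 days at 250-500 cells/well. IC50 derived from CellTiter-Glo luminescent signal after 10 min room-temperature incubation.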

p53 Y220C = p53 Y220C (Homo sapiens, UniProt P04637, Y220C); assay: Luciferase Reporter Assay (Luc), p53 response element, NClH1299 cells with inducible p53 Y220C; type: cell-based; settings: luciferase reporter, NClH1299 inducible p53 Y220C, 6 hour; for Emax: 10 uM tool compound as positive control; for AC50: read-out: Luc P53 Y220C AC50
How it was run: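 Cells were seeded at 5,000 per well and induced with 0.5 ug/mL doxycycline for 24 hours, then exposed to compound for 6 hours. One-Glo reagent was added, plates shaken 5 minutes at room temperature, and luminescence read immediately.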

H1299 p53 Y220C = assay: Cell Proliferation Assay (CellTiter-Glo, CTG), H1299 p53 Y220C (NClH1299-inducible p53 Y220C); type: cell-based; settings: Homo sapiens, NCI-H1299, 120 h, CellTiter-Glo, H1299 p53 Y220C, 5 days
How it was run: as §1

[1] = molecular target: T1, p53 Y220C mutant protein (amino acid residues 94-293) (Homo sapiens, UniProt P04637, Y220C); assay: Surface Plasmon Resonance (SPR) assay, Kd_kinetic; type: binding; settings: SPR, kinetic KD, p53 Y220C; read-out: SPR P53 Y220C KD kinetic
T1 construct: p53 Y220C mutant protein (amino acid residues 94-293)
How it was run: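 Kd values come from fitting sensorgrams to a 1:1 binding model. Sensorgrams were recorded on a Biacore 8K at 16 or 20 °C in pH 7.5 Tris buffer with 100 mM NaCl, 1 mM DTT, detergents and 1% DMSO.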

[2] = molecular target: T1, p53 Y220C mutant protein (amino acid residues 94-293); assay: Thermal Shift Assay (TSA), dTM; type: binding; settings: thermal shift; for ΔTm at 10 µM: 10 uM compound, read-out: TSA P53 Y220C dTM (10 uM); for ΔTm at 100 µM: 100 uM compound, read-out: TSA P53 Y220C dTM (100 uM)
How it was run: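 Sypro Orange melt (30→50 °C, 0.03 °C/s) with TM taken from a Boltzmann two-state fit. Protein (residues 94-293) at 5 μM was pre-incubated 3 h at 20 °C with compound at 10 μM or 100 μM in pH 7.4 HEPES/NaCl buffer containing 0.01% Pluronic F-127 and 1% DMSO.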

CNC(=O)c1ccc(NCC#Cc2nc3c(N[C@@H]4CN(C)C[C@@H]4F)cccn3c2SC(F)(F)F)c(OC)c1 [Example 103, 4-{[3-(8-{[(3R,4S)-4-fluoro-1-methylpyrrolidin-3-yl]amino}-3-[(trifluoromethyl)sulfanyl]imidazo[1,2-a]pyridin-2-yl)prop-2-yn-1-yl]amino}-3-methoxy-N-methylbenzamide]
IC50 (H1299 p53 R273H): ≥ 10 µM | IC50 (NUGC3 p53 Y220C): < 750 nM | Emax (p53 Y220C): 80 to 90% | AC50 (p53 Y220C): < 750 nM | IC50 (H1299 p53 Y220C): < 750 nM | Kd [1]: < 10 nM | ΔTm at 10 µM [2]: ≥ 10 °C | ΔTm at 100 µM [2]: ≥ 10 °C

CNC(=O)c1ccc(NCC#Cc2nc3c(N[C@@H]4CCN(C)C[C@@H]4F)cccn3c2SC(F)(F)F)c(OCCOC)c1 [Example 104, 4-{[3-(8-{[(3S,4R)-3-fluoro-1-methylpiperidin-4-yl]amino}-3-[(trifluoromethyl)sulfanyl]imidazo[1,2-a]pyridin-2-yl)prop-2-yn-1-yl]amino}-3-(2-methoxyethoxy)-N-methylbenzamide]
IC50 (H1299 p53 R273H): 8 to 10 µM | IC50 (NUGC3 p53 Y220C): < 750 nM | Emax (p53 Y220C): 80 to 90% | AC50 (p53 Y220C): < 750 nM | IC50 (H1299 p53 Y220C): < 750 nM | Kd [1]: < 10 nM | ΔTm at 10 µM [2]: ≥ 10 °C | ΔTm at 100 µM [2]: ≥ 10 °C

CNC(=O)c1ccc(NCC#Cc2nc3c(N[C@@H]4CCN(C)C[C@@H]4F)cccn3c2SC(F)(F)F)c(OC(F)F)c1 [Example 105, 3-(difluoromethoxy)-4-{[3-(8-{[(3S,4R)-3-fluoro-1-methylpiperidin-4-yl]amino}-3-[(trifluoromethyl)sulfanyl]imidazo[1,2-a]pyridin-2-yl)prop-2-yn-1-yl]amino}-N-methylbenzamide]
IC50 (H1299 p53 R273H): 8 to 10 µM | IC50 (NUGC3 p53 Y220C): < 750 nM | Emax (p53 Y220C): 80 to 90% | AC50 (p53 Y220C): < 750 nM | IC50 (H1299 p53 Y220C): < 750 nM | Kd [1]: < 10 nM | ΔTm at 10 µM [2]: ≥ 10 °C | ΔTm at 100 µM [2]: ≥ 10 °C

CNC(=O)c1ccc(NCC#Cc2nc3c(N[C@@H]4CCN(C)C[C@@H]4F)cccn3c2SC(F)F)c(OC)c1 [Example 106, 4-[(3-{3-[(difluoromethyl)sulfanyl]-8-{[(3S,4R)-3-fluoro-1-methylpiperidin-4-yl]amino}imidazo[1,2-a]pyridin-2-yl}prop-2-yn-1-yl)amino]-3-methoxy-N-methylbenzamide]
IC50 (H1299 p53 R273H): ≥ 10 µM | IC50 (NUGC3 p53 Y220C): < 750 nM | Emax (p53 Y220C): 70 to 80% | AC50 (p53 Y220C): < 750 nM | IC50 (H1299 p53 Y220C): < 750 nM | Kd [1]: < 10 nM | ΔTm at 10 µM [2]: 5 to 10 °C | ΔTm at 100 µM [2]: ≥ 10 °C

CNC(=O)c1ccc(OC)c(NCC#Cc2nc3c(N[C@@H]4CCN(C)C[C@@H]4F)cccn3c2SC(F)(F)F)c1 [Example 107, 3-{[3-(8-{[(3S,4R)-3-fluoro-1-methylpiperidin-4-yl]amino}-3-[(trifluoromethyl)sulfanyl]imidazo[1,2-a]pyridin-2-yl)prop-2-yn-1-yl]amino}-4-methoxy-N-methylbenzamide]
IC50 (H1299 p53 R273H): < 5 µM | IC50 (NUGC3 p53 Y220C): < 750 nM | Emax (p53 Y220C): 80 to 90% | AC50 (p53 Y220C): < 750 nM | IC50 (H1299 p53 Y220C): < 750 nM | Kd [1]: < 10 nM | ΔTm at 10 µM [2]: ≥ 10 °C | ΔTm at 100 µM [2]: ≥ 10 °C

CCNC(=O)c1ccc(OC)c(NCC#Cc2nc3c(N[C@@H]4CCN(C)C[C@@H]4F)cccn3c2SC(F)(F)F)c1 [Example 108, N-ethyl-3-{[3-(8-{[(3S,4R)-3-fluoro-1-methylpiperidin-4-yl]amino}-3-[(trifluoromethyl)sulfanyl]imidazo[1,2-a]pyridin-2-yl)prop-2-yn-1-yl]amino}-4-methoxybenzamide]
IC50 (H1299 p53 R273H): 8 to 10 µM | IC50 (NUGC3 p53 Y220C): < 750 nM | Emax (p53 Y220C): 80 to 90% | AC50 (p53 Y220C): < 750 nM | IC50 (H1299 p53 Y220C): < 750 nM | Kd [1]: < 10 nM | ΔTm at 10 µM [2]: ≥ 10 °C | ΔTm at 100 µM [2]: ≥ 10 °C

COc1ccc(C(=O)NC2CC2)cc1NCC#Cc1nc2c(N[C@@H]3CCN(C)C[C@@H]3F)cccn2c1SC(F)(F)F [Example 109, N-cyclopropyl-3-{[3-(8-{[(3S,4R)-3-fluoro-1-methylpiperidin-4-yl]amino}-3-[(trifluoromethyl)sulfanyl]imidazo[1,2-a]pyridin-2-yl)prop-2-yn-1-yl]amino}-4-methoxybenzamide]
IC50 (H1299 p53 R273H): 8 to 10 µM | IC50 (NUGC3 p53 Y220C): < 750 nM | Emax (p53 Y220C): 80 to 90% | AC50 (p53 Y220C): < 750 nM | IC50 (H1299 p53 Y220C): < 750 nM | Kd [1]: < 10 nM | ΔTm at 10 µM [2]: ≥ 10 °C | ΔTm at 100 µM [2]: ≥ 10 °C

COc1cc2c(cc1NCC#Cc1nc3c(N[C@@H]4CCN(C)C[C@@H]4F)cccn3c1CC(F)(F)F)CCNC2=O [Example 110, 6-{[3-(8-{[(3S,4R)-3-fluoro-1-methylpiperidin-4-yl]amino}-3-(2,2,2-trifluoroethyl)imidazo[1,2-a]pyridin-2-yl)prop-2-yn-1-yl]amino}-7-methoxy-3,4-dihydro-2H-isoquinolin-1-one]
IC50 (H1299 p53 R273H): 5 to 8 µM | IC50 (NUGC3 p53 Y220C): < 750 nM | Emax (p53 Y220C): 80 to 90% | AC50 (p53 Y220C): < 750 nM | IC50 (H1299 p53 Y220C): < 750 nM | Kd [1]: < 10 nM | ΔTm at 100 µM [2]: ≥ 10 °C

CNC(=O)c1cc(OC)c(NCC#Cc2nc3c(N[C@@H]4CCN(C)C[C@@H]4F)cccn3c2CC(F)(F)F)cc1Cl [Example 111, 2-chloro-4-{[3-(8-{[(3S,4R)-3-fluoro-1-methylpiperidin-4-yl]amino}-3-(2,2,2-trifluoroethyl)imidazo[1,2-a]pyridin-2-yl)prop-2-yn-1-yl]amino}-5-methoxy-N-methylbenzamide]
IC50 (H1299 p53 R273H): ≥ 10 µM | IC50 (NUGC3 p53 Y220C): 750 to 1500 nM | Emax (p53 Y220C): > 90% | AC50 (p53 Y220C): 750 to 1500 nM | IC50 (H1299 p53 Y220C): 750 to 1500 nM | Kd [1]: < 10 nM | ΔTm at 100 µM [2]: ≥ 10 °C

CN1CC[C@@H](Nc2cccn3c(CC(F)(F)F)c(C#CCNc4ccccc4)nc23)[C@@H](F)C1 [Example 112, (3S,4R)-3-fluoro-1-methyl-N-{2-[3-(phenylamino)prop-1-yn-1-yl]-3-(2,2,2-trifluoroethyl)imidazo[1,2-a]pyridin-8-yl}piperidin-4-amine]
IC50 (H1299 p53 R273H): ≥ 10 µM | IC50 (NUGC3 p53 Y220C): > 3000 nM | Emax (p53 Y220C): 70 to 80% | AC50 (p53 Y220C): > 3000 nM | IC50 (H1299 p53 Y220C): > 3000 nM | Kd [1]: 100 to 1000 nM | ΔTm at 100 µM [2]: 5 to 10 °C

COCCN1CCC(Nc2cccn3c(CC(F)(F)F)c(C#CCNc4ccc(S(C)(=O)=O)cc4OC)nc23)CC1 [Example 113, N-(2-{3-[(4-methanesulfonyl-2-methoxyphenyl)amino]prop-1-yn-1-yl}-3-(2,2,2-trifluoroethyl)imidazo[1,2-a]pyridin-8-yl)-1-(2-methoxyethyl)piperidin-4-amine]
IC50 (H1299 p53 R273H): 5 to 8 µM | IC50 (NUGC3 p53 Y220C): 750 to 1500 nM | Emax (p53 Y220C): < 70% | AC50 (p53 Y220C): 1500 to 3000 nM | IC50 (H1299 p53 Y220C): 750 to 1500 nM | Kd [1]: 10 to 100 nM | ΔTm at 100 µM [2]: ≥ 10 °C

COc1cc(S(C)(=O)=O)ccc1NCC#Cc1nc2c(NC3CC4(C3)CN(C)C4)cccn2c1CC(F)(F)F [Example 114, N-(2-{3-[(4-methanesulfonyl-2-methoxyphenyl)amino]prop-1-yn-1-yl}-3-(2,2,2-trifluoroethyl)imidazo[1,2-a]pyridin-8-yl)-2-methyl-2-azaspiro[3.3]heptan-6-amine]
IC50 (H1299 p53 R273H): 5 to 8 µM | IC50 (NUGC3 p53 Y220C): 1500 to 3000 nM | Emax (p53 Y220C): 70 to 80% | AC50 (p53 Y220C): > 3000 nM | IC50 (H1299 p53 Y220C): > 3000 nM | Kd [1]: 10 to 100 nM | ΔTm at 100 µM [2]: ≥ 10 °C

COc1cc(S(C)(=O)=O)ccc1NCC#Cc1nc2c(NC3CC4(COC4)C3)cccn2c1CC(F)(F)F [Example 115, 2-{3-[(4-methanesulfonyl-2-methoxyphenyl)amino]prop-1-yn-1-yl}-N-{2-oxaspiro[3.3]heptan-6-yl}-3-(2,2,2-trifluoroethyl)imidazo[1,2-a]pyridin-8-amine]
IC50 (H1299 p53 R273H): ≥ 10 µM | IC50 (NUGC3 p53 Y220C): > 3000 nM | Emax (p53 Y220C): < 70% | AC50 (p53 Y220C): > 3000 nM | IC50 (H1299 p53 Y220C): > 3000 nM | Kd [1]: 100 to 1000 nM | ΔTm at 100 µM [2]: 5 to 10 °C

COC(=O)N1CCC(Nc2cccn3c(CC(F)(F)F)c(C#CCNc4ccc(S(C)(=O)=O)cc4OC)nc23)CC1 [Example 116, methyl 4-[(2-{3-[(4-methanesulfonyl-2-methoxyphenyl)amino]prop-1-yn-1-yl}-3-(2,2,2-trifluoroethyl)imidazo[1,2-a]pyridin-8-yl)amino]piperidine-1-carboxylate]
IC50 (H1299 p53 R273H): ≥ 10 µM | IC50 (NUGC3 p53 Y220C): > 3000 nM | Emax (p53 Y220C): < 70% | AC50 (p53 Y220C): > 3000 nM | IC50 (H1299 p53 Y220C): > 3000 nM | Kd [1]: 100 to 1000 nM | ΔTm at 100 µM [2]: 5 to 10 °C
